This is an account of results in patent publication US20230065562A1, “DUAL CONTROLS FOR THERAPEUTIC CELL ACTIVATION OR ELIMINATION” (Bellicum Pharmaceuticals, Inc., priority 2015, published 2023).

pEC50, pIC50: −log10 of the molar value. Where two headings read alike, the source gives them in different places. A value given as a limit tells only on which side of the number the result lay.

Data set [1] concerns the target FRB-PLF (Homo sapiens, UniProt P42345+P62942, K2095P/T2098L/W2101F). Conditions: cited from earlier work.
Data set [2] deals with wt FRB (K2095 T2098 W2101) (Homo sapiens, UniProt P42345+P62942). Conditions: cited from earlier work.
For data set [3], the system named is human CD3+CD19+ T cells. In words: AP1903 dose-dependent elimination in vivo of iCasp9-transduced T cells. Set-up: species or system immune deficient mice (NSG). Conditions: mouse. How it is done:
The Caspase-9 polypeptide has a dose-response curve in vivo, which could be used to eliminate a variable fraction of T cells expressing the Caspase-9 polypeptide.
T cells were transduced with SFG-iCasp9-D330E-2A-ΔCD19 retrovirus and injected i.v. into immune deficient mice (NSG). […] After an additional 24 hours, mice were sacrificed and lymphocytes from the spleen (A) were isolated and analyzed by flow cytometry for the frequency of human CD3^+CD19^+ T cells.

The conditions of data set [4]: cited from earlier work.
For data set [5], the system named is CD3+ΔCD19+ (iCasp9+) T cells. In words: CASPALLO phase 1 clinical trial: AP1903 in patients with GvHD after iCasp9+ T cells. Conditions: human, in vivo.
Data set [6] concerns cells. The data set is described as follows: AP1903 amount needed in vitro for effective signaling of cells. Format: cell-based. How it is done:
This equates to 16-160 μg/L or […] (1.6-160 μg/kg).

For data set [7], the system named is 293 cells. In words: SEAP assay: FRB-tagged CAR plus iCaspase-9 in 293 cells. Format: cell-based. From the text: FIGS. 6A and 6B provide the results of an assay of two-tiered activation of apoptosis.
As a proof of principal, two tandem FRB, domains were fused to either a 1st generation Her2-CAR or to a 1st generation CD19-CAR co-expressing inducible Caspase-9. 293 cells were transiently transfected with a constitutive reporter plasmid, SRα-SEAP, along with normalized levels of expression plasmids encoding Her2-CAR-FRB2, iCaspase-9, Her2-CAR-FRBl2+iCasp9, iC9-CAR(19).FRBl2 (coexpressing both CD19-CAR-FRBl2 and iCaspase9), or control vector. […] After overnight incubation with drugs, SEAP activity was determined. […] This dose-dependent decrease required the presence of both the FRB-tagged CAR and the FKBP-tagged Caspase-9. […] Moreover, on- or off-target-mediated CAR clustering should increase the sensitivity of killing primarily at the site of scFv engagement.

Data set [8] has as its system dual-switch TCR-modified T cells. As to conditions: 10 nM Rap; 14±4% without drug.
The test system of data set [9] is 293 cells. In words: 293 cells transfected with iC9 or iRC9: caspase 3/7 (IncuCyte) and SRα SEAP assays. Format: cell-based. Here is the method:
293 cells were seeded at 300,000 cells/well in a 6-well plate and allowed to grow for 2 days. After 48 h, cells were transfected with 1 μg of experimental plasmids. Cells were harvested 48 h after transfection and diluted 2.5× their original volume.
For FIG. 52B left graph, the lines of the graph, as indicated at the 10^3 point of the x-axis are, from top to bottom, negative control, FKBP.FRB.C9, FRB.FKBP.C9, iC9. For FIG. 52B right graph, the lines of the graph at the 10^3 point of the x-axis are, from top to bottom negative control, iC9, FKBP.FRB.C9, and FRB.FKBP.C9.
On day 0, 5×10^5 293 cells were seeded onto 6-well plates in 2 ml DMEM medium (10% FBS+1% pen/strep). […] On day 2, cells were collected, and seeded onto 96-well plates containing 2× concentrated half-log drug dilutions and also analyzed by FACS for transfection efficiency. On day 3, the drug-treated cells were heat inactivated at 68° C. for 1 hour and supernatants were added to black 96-well plate containing 1 mM MUP substrate (2× concentration) diluted in 2M diethanolamine. The plates were incubated at 37° C. for 30 min and absorbance at 405 nm was measured.

Data set [10] concerns iRmC9 T cells (pBP1327, GFP-Fluc). The data set is described as follows: In vivo apoptotic activation in NSG mice, iRmC9 T cells (IVIS imaging, spleen FACS). Set-up: species or system mouse. Conditions: 5 mg/kg rimiducid or 10 mg/kg rapamycin i.p.; spleen FACS, FIG. 109D. Here is the method:
(§1) PBMCs from donor 676 were activated and co-transduced with one of the off-switches and GFP-Fluc retroviruses. Eleven days after transduction, cells were analyzed for transduction efficiency with GFP and anti-CD3/anti-CD19 antibodies (FIG. 109A). […] The CD19^+ MFI for the different T cell populations were: iC9=15.07, iRC9=14.38, and iRmC9=13.39. The cells were collected, counted, washed, and resuspended at 1×10^6 cells in 100 μl PBS for each tail vein mouse injection (Table 10) (time=−18 hr). […] IVIS imaging was performed at −14, 0, 5, 24 and 29 hours. Mice were sacrificed and spleens were collected for FACS analysis with hCD3, hCD19 and mCD45 antibodies. […] The higher percentage of remaining iRmC9 T cells observed may be due to an artifact of normalizing the no drug group.
PBMCs from donor 676 were activated and co-transduced with retroviruses encoding the pBP0220, 1310, 1327 vectors and the GFP-Fluc plasmid. (FIG. 109A) Eleven days post transduction, the cells were analyzed for CD19 and GFP transduction efficiency prior to injection into mice. (FIGS. 109B & C) NSG mice were injected i.v. with 107 T cells co-transduced with GFP-Fluc per mouse and suicide drugs were injected i.p. the next day. Bioluminescence of cells was assessed at −14, 0, 5, 24, and 29 hours post-drug administration. (FIG. 109D) At 29-h post-drug treatment, mice were euthanized and spleens were collected for flow cytometry analysis with antibodies to hCD3, […], and mCD45

The test system of data set [11] is 293 cells.
Procedure: FIG. 12B: Cultures of HEK-293 cells were transfected (via Genejuice, Novagen) with the constitutive SRα-SEAP reporter plasmid (pBP0046, 1 μg), a fusion of human FKBP12 with human Caspase-9 (pBP0044, 2 μg) and FRB-encoding expression constructs, containing four copies of FRBL (pBP0725, 2 μg) or control vectors encoding zero or one copy of FRBL.
To determine if iCaspase-9 could be aggregated by tandem multimers of FRBL, one to four tandem copies of FRBL were subcloned into an expression vector, pSH1, driving transgene expression from an SRα promoter. […] 293 cells were transfected with the SRα-SEAP reporter plasmid along with FKBP12-ΔCaspase-9 (iCaspase-9/iC9), plus 1 of several FRB-based, non-myristoylated scaffold proteins containing 0, 1, or 4 tandem copies of FRBL.
The test system of data set [12] is HPAC PSCA+ tumor cells. In words: T cell anti-tumor assay with HPAC-RFP cells (IncuCyte, ELISA). Format: cell-based, human. As to conditions: 10 nM on day 7 of co-culture. Here is the method:
PBMCs from donor 920 were activated and co-transduced with GFP-Ffluc and iMC+CARζ-T (189), i9+CARζ+MC (873), or FwtFRBC9/MC.FvFv (1308)-encoding vectors. […] (A & B) Two days post-seeding, culture supernatants were analyzed for IL-2, IL-6, and IFN-γ production by ELISA. […] Numbers of HPAC-RFP and T cell-GFP at the E:T 1:2 ratio was analyzed using the basic analyzer software for the IncuCyte at day 7 (Ci) and day 8 with 0 nM suicide drug (Cii) and 10 nM suicide drug (Ciii). Similar analysis was also performed at the 1:5 E:T ratio (D). (Note: the y-axis in Ci and Di are at log-scale).
The HPAC PSCA^+ tumor cells were stably labeled with nuclear-localized RFP protein using the NucLight™ Red Lentivirus Reagent (Essen Bioscience, 4625). To set up the coculture, 4000 HPAC-RFP cells were seeded per well of 96-well plates in 100 μl of CTL medium without IL-2 for at least 4 hours to allow tumor cells to adhere. After transduction with the appropriate retrovirus and allowed to rest for at least 7 days in culture, T were seeded according to various E:T ratios to the HPAC-RFP-containing 96-well plates. […] Each plate was set up in duplicates, one plate to monitor with the IncuCyte cell imaging system and one plate for supernatant collection for ELISA assay on day 2. The plates were centrifuged for 5 min at 400×g and placed inside the IncuCyte (Essen Bioscience, Dual Color Model 4459) to monitor red fluorescence (and green fluorescence if T cells were labeled with GFP-Ffluc) every 2-3 hours for a total of 7 days at 10× objective. Image analysis was performed using the “HPAC-RFP_TcellsGFP_10×_MLD” processing definition. On day 7, HPAC-RFP cells were analyzed using the “Red Object Count (1/well)” metric. […] On day 8, Tcell-GFP cells were analyzed using the “Total Green Object Integrated Intensity” metric. Each condition was performed at least in duplicates and each well was imaged at 4 different locations.

Data set [13] relates to iRC9 T cells (pBP1310, GFP-Fluc). The data set is described as follows: In vivo apoptotic activation in NSG mice, iRC9 T cells (IVIS imaging, spleen FACS). Also noted: species or system mouse. Conditions: 10 mg/kg rapamycin i.p., at 24 hours, FIG. 109D. How it is done:
as §1
PBMCs from donor 676 were activated and co-transduced with retroviruses encoding the pBP0220, 1310, 1327 vectors and the GFP-Fluc plasmid. (FIG. 109A) Eleven days post transduction, the cells were analyzed for CD19 and GFP transduction efficiency prior to injection into mice. (FIGS. 109B & C) NSG mice were injected i.v. with 107 T cells co-transduced with GFP-Fluc per mouse and suicide drugs were injected i.p. the next day. Bioluminescence of cells was assessed at −14, 0, 5, 24, and 29 hours post-drug administration. […]

Data set [14] relates to T cells expressing ΔC9 alone (pBP1501). The data set is described as follows: T cell killing assay with caspase 3/7 green reagent monitored by IncuCyte, negative control ΔC9. Format: cell-based, human. As to conditions: increasing doses, FIG. 108B.
Source text: To determine the functionality of these switches in activated T cells, retroviral supernatants were produced and transduced into PBMCs activated from 3 separate donors.
Data set [15] relates to EGFPluciferase-labeled T cells. In words: In vivo function of rapamycin/rimiducid-inducible Caspase-9 switches in NSG mice (luciferase-labeled T cells).
Procedure: T cells were activated and co-transduced with the “iMC+CARζ”, SFG-iMC-2A-CAR.ζ vector, and a iC9-X vector, SFG-FRB.FKBP12.C9-2A-ΔCD19 to create a CombiCAR.
8-week-old female, immune-deficient mice (NOD.CgPrkdc^scidIl2^tm1Wjl/SzJ; NSG) were injected IV with 1×10^6 T cells in 100 p1 PBS. Mice were subjected to IVIS imaging ˜4 hrs after T cell injection (˜14 hrs post-drug administration). […] Mice were imaged again at 5-6 hrs, and 24 hrs after drug injection. Mice were sacrificed and spleens were removed for FACS analysis.
Mice were imaged for firefly luciferase-derived bioluminescence at the indicated time points relative to administration of drug or vehicle.
Data set [16] has as its system 293 cells. The source holds these as a separate data set.
Source text: To determine if the polarity of heterodimerization and Caspase-9 assembly could be reversed, one to four 1 to 4 tandem copies of FKBP12 were subcloned into expression vector, pSH1, as above. […] As above, 293 cells were transfected with the SRα-SEAP reporter plasmid along with FRBL-ΔCaspase-9, plus a non-myristoylated scaffold protein containing 1 or 4 tandem copies of FKBP12.
The target of data set [17] is FRB-KTF (Homo sapiens, UniProt P42345+P62942, W2101F). Conditions: cited from earlier work.
Chain of FRB-KTF (P42345 2012-2144 W2101F limits assumed): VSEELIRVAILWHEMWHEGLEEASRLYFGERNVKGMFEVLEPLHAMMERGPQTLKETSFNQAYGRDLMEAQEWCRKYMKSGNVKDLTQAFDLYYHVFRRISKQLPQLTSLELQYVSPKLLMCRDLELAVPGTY
Chain of FRB-KTF (P62942 2-108 limits assumed): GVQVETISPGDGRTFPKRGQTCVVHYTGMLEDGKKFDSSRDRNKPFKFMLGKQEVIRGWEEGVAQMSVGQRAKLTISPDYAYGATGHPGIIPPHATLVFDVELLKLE

Chain of wt FRB (K2095 T2098 W2101) (P42345 2012-2144 limits assumed): as the sequence (P42345 2012-2144 W2101F limits assumed) above, with F90W counted along it
Chain of wt FRB (K2095 T2098 W2101) (P62942 2-108 limits assumed): as the sequence (P62942 2-108 limits assumed) above
Chain of FRB-PLF (P42345 2012-2144 K2095P/T2098L/W2101F): as the sequence (P42345 2012-2144 W2101F limits assumed) above, with K84P, T87L counted along it
Chain of FRB-PLF (P62942 2-108): as the sequence (P62942 2-108 limits assumed) above

As usually defined, the pEC50 is −log10 of the EC50, conventionally taken in molar units. Take `CO[C@@H]1C[C@H](C[C@@H](C)[C@@H]2CC(=O)[C@H](C)/C=C(\C)[C@@H](O)[C@@H](OC)C(=O)[C@H](C)C[C@H](C)/C=C/C=C/C=C(\C)[C@H](OC(C)C)C[C@@H]3CC[C@@H](C)[C@@](O)(O3)C(=O)C(=O)N3CCCC[C@H]3C(=O)O2)CC[C@H]1O` [R-Isopropoxyrapamycin]: the pEC50 is about 8.07 in data set [1] and about 6.52 in data set [2].

Turning to `CC[C@H](C(=O)N1CCCC[C@H]1C(=O)O[C@H](CCc1ccc(OC)c(OC)c1)c1cccc(OCC(=O)NCCNC(=O)COc2cccc([C@@H](CCc3ccc(OC)c(OC)c3)OC(=O)[C@@H]3CCCCN3C(=O)[C@@H](CC)c3cc(OC)c(OC)c(OC)c3)c2)c1)c1cc(OC)c(OC)c(OC)c1` (relative stereo) [AP1903, 2-Piperidinecarboxylic acid, 1-[(2S)-1-oxo-2-(3,4,5-trimethoxyphenyl)butyl]-, 1,2-ethanediylbis[imino(2-oxo-2,1-ethanediyl)oxy-3,1-phenylene[(1R)-3-(3,4-dimethoxyphenyl)propylidene]] ester, [2S-[1(R*),2R*[S*[S*[1(R*),2R*]]]]]-(9C1)], the “dose sufficient to eliminate most modified T cells in vivo” value in data set [3] is given as 0.5 mg/kg. Also, the “safety and tolerability in healthy volunteers” value in data set [4] (0.01-1.0 mg/kg, listed as API 903) was “No significant adverse effects”. For the same compound, in data set [4] (1 volunteer at 1.0 mg/kg), the “adverse event considered possibly related to AP1903” value is on record as “vasodilatation”. Moreover, in data set [4] (IV infusion over 2 hours), the “plasma level, % of maximal concentration at 2 hours post-dose” value is about 7% and the “plasma level, % of maximal concentration at 10 hours post-dose” value is on record as about 1%. In addition, in data set [4] (Phase 1 study in volunteers), the serious adverse events entry was “No serious adverse events”. Also, in data set [4] (Phase 1 study), the well-tolerated doses result is on record as “up to 1 mg/kg”. In addition, in data set [5], the “further reduction of CD3+ΔCD19+ cells within 24 hours” value is recorded as “further log reduction”; the “time to resolution of skin and liver aGvHD” value is at most 24 h. In addition, in [6], the “amount needed in vitro for effective signaling of cells” value fell in the range of 10 to 100 nM. For the same compound, the “SEAP activity, % of normal levels” value in [7] (iCaspase-9) was “about 20%”.

What is called pIC50 is the negative decadic logarithm of the IC50, by convention in mol/L. Take `CO[C@H]1C[C@@H]2CC[C@@H](C)[C@@](O)(O2)C(=O)C(=O)N2CCCC[C@H]2C(=O)O[C@H]([C@H](C)C[C@@H]2CC[C@@H](O)[C@H](OC)C2)CC(=O)[C@H](C)/C=C(\C)[C@@H](O)[C@@H](OC)C(=O)[C@H](C)C[C@H](C)/C=C/C=C/C=C/1C` [rapamycin]: in [8], the “Annexin-V+ cells” value stood at 72±5%. Also, in data set [9], the “rapamycin concentration at which iRC9 is highly active” value was 100 µM. In data set [10], the “iRmC9 T cells remained in splenocytes (normalized to no drug group)” value is reported as about 40%. Besides, the pIC50 in data set [11] and in data set [16] was about 8.52 in each case. Besides, in [12], the “elimination of FwtFRBC9/MC.FvFv T cells within 24 hours” value is reported as “more than 60%”. Besides, the “iRC9 T cells remained in splenocytes compared to no drug- and rimiducid-treated groups” value in data set [13] is on record as about 25%. Besides, in data set [7] (FRB-tagged CAR plus FKBP-tagged Caspase-9), the “maximal decrease of SEAP activity” value is about 50%. Besides, the “activity of negative control ΔC9 alone (pBP1501) in T cells” value in [14] is listed as “not active”. The “cell death of T cells within 24 hours in vivo” value in [15] was 90%.

As to “S-Butanesulfonamidorap [S-Butanesulfonamidorap (AP23050)]”, the pEC50 in data set [17] is under 6.70; in data set [2] it was about 8.57.
